# According to patent publication US20110117195A1, “METHOD FOR IMPROVING MYOCARDIAL INFARCTION BY INTRAMYOCARDIAL OR TRANSENDOCARDIAL INJECTION OF PEPTIDE NANOFIBERS” (National Cheng Kung University, priority 2009, published 2011):
# Tests used:
# Format in all cases: in vivo
# [1] = test system: Lanyu mini-pig models of experimental myocardial infarction (MI); test: Cardiac catheterization (hemodynamic parameters) after coronary artery ligation in mini-pigs
# Protocol: (§1) Sexually matured Lanyu mini-pigs (about 5 months old, body weight: 21.8±3.1 kg), were divided into 3 groups: the first group is sham operation, suturing was performed without ligation (n=4); the second group is mid-left coronary artery ligation (for simulating myocardial infarction, MI) immediately followed with injection of normal saline solution (MI+NS, n=4); and the third group is mid-left coronary artery ligation immediately followed with injection of 1% peptide nanofibers solution (MI+NFs, n=5) in the entire infarcted area with a total of 2 ml NFs divided by 40 delivery sites (50 ul for each site), wherein the sequence of peptide NFs is AcN-RARADADARARADADA-NH2. Cardiac functions were assessed by echocardiography immediately after MI and together with cardiac catheterization 4 weeks later.
# (§2) In the preferred embodiment of the present invention, the peptide nanofibers solution contains peptide nanofibers which can form a biologically compatible peptide hydrogel, wherein the biologically compatible peptide hydrogel is prepared by: dissolving powders of the self-assembling peptide nanofibers in a buffer solution, such as pH 7.4 phosphate buffered saline (PBS) solution; and mixing the powders of the self-assembling peptide nanofibers with the buffer solution by sonication (100 W, 10 mins), so as to obtain a hydrogel solution of the biologically compatible peptide hydrogel (i.e. the peptide nanofibers solution), wherein the percentage of the self-assembling peptide nanofibers in the solution can be 0.1-10% by weight of the solution, preferably 0.5-5% by weight, and more preferably 1.0% by weight; and wherein the volume of the solution of the biologically compatible peptide hydrogel is preferably 0.1-10 ml, and more preferably 2 ml. In the embodiment, the percentage of the self-assembling peptide nanofibers in the solution is 1.0% by weight, and the volume of the solution of the biologically compatible peptide hydrogel is 2 ml. Meanwhile, the buffer solution (PBS) is added with monovalent metal cation compound of a concentration sufficient to promote the self-assembly of the self-assembling peptide nanofibers, wherein the monovalent metal cation is selected from the group consisting of: lithium (Li^+), sodium (Na^+) and potassium (K^+). In the embodiment, the monovalent metal cation compound is sodium […].
# (§3) Besides, the pharmaceutical composition of the second and third groups is injected to a plurality of delivery sites in the entire infarcted area of myocardium tissue, respectively, wherein the number of the delivery sites is preferably ranged between 10 and 100, and more preferably 40, without limitation thereto. The plurality of delivery sites in the entire infarcted area is advantageous to increase the distribution density to support materials (e.g. peptide nanofibers). In addition, the infarcted area of myocardium tissue is preferably a mid-left portion of myocardium tissue of an injured heart with myocardial infarction, but also can be any infarcted area of the heart. The self-assembling peptide nanofibers (AcN-RARADADARARADADA-NH2) are 16 amino acids in length, but also can be 8-200 amino acids in length, and preferably 12-32 amino acids in length. […]
# [2] = test system: Lanyu mini-pig models of experimental myocardial infarction (MI); test: Immunohistological index (myocardial capillary density) after coronary artery ligation in mini-pigs
# Protocol: as §1, with “later. […]” for “later.”
# [3] = test system: Lanyu mini-pig models of experimental myocardial infarction (MI); test: Echocardiography after coronary artery ligation in mini-pigs
# Protocol: as §1, §2, §3
# [4] = Table 1, 28 days after infarction, 2 ml intramyocardial in 40 sites, in mmHg/s (unit assumed)
# [5] = Table 1, 28 days after infarction, 2 ml intramyocardial in 40 sites
# [6] = one month after MI, P<0.01 vs MI+NS
substance,measurement,setting,value
"AcN-RARADADARARADADA-NH2 (Ac-RARADADARARADADA-NH2) [MI + NFs, self-assembling peptide nanofibers forming a hydrogel]",Emax (maximal chamber elasticity),"[1]; Table 1, 28 days after infarction, 2 ml intramyocardial in 40 sites, in mmHg/mL (unit assumed)",2.80 ± 1.43
same,+dP/dt Max,[1]; [4],1458 ± 154
same,−dP/dt Max,[1]; [4],−1850 ± 94
same,diastolic function and ventricular remodeling,"[1]; one month after MI, end-diastolic and end-systolic volumes, −dP/dt Max, Emax",significantly improved
same,systolic function (ejection fraction and +dP/dt Max) compared to the (MI+NS) group,"[1]; one month after MI, no significant difference",only modest improvement
same,M.C.D. (myocardial capillary density),[2]; [5],286 ± 179 number/mm^2
same,myocardial capillary density (M.C.D.),"[2]; one month after MI, in words",significantly increased
same,E.F. (ejection fraction),[3]; [5],47 ± 8
same,"IVS-D (thickness of inter-ventricular septum, diastolic)",[3]; [5],0.6 ± 0.12 cm
same,"IVS-S (thickness of inter-ventricular septum, systolic)",[3]; [5],0.7 ± 0.13 cm
same,thickness of inter-ventricular septum on diastolic (IVS-D) phase,[3]; [6],0.6 ± 0.12 cm
same,thickness of inter-ventricular septum on systolic (IVS-S) phase,[3]; [6],0.7 ± 0.13 cm
